The text below walks through data of patent publication US20230348583A1, “TGFbeta1-BINDING IMMUNOGLOBULINS AND USE THEREOF” (SCHOLAR ROCK, INC., priority 2016, published 2023).

Data set [1] concerns rats. The settings on record: Frazier et al. 2007; cited from earlier work.
Data set [2] relates to cynomolgus macaques. The conditions noted are these: cynomolgus monkey, in vivo; cited from earlier work.
The subject of data set [3] is human cancer patients. The conditions noted are these: in vivo; cited from earlier work.
Data set [4] relates to female F344/NHsd rats. As to the kind of experiment: Rat toxicity study. The settings on record: for Aortic root: Hemorrhage, Minimal / Aortic root: Infiltrate, mixed cell, Minimal / Atrium: Hemorrhage, Minimal / Atrium: Hyperplasia, endothelium, Minimal / Atrium: Infiltrate, mixed cell, Minimal / Atrium: Infiltrate, mixed cell, Slight / Coronary artery: Necrosis with inflammation, Slight / Heart valves: Valvulopathy, Minimal / Heart valves: Valvulopathy, Moderate / Heart valves: Valvulopathy, Slight / Myocardium: Degeneration/necrosis, Minimal / Myocardium: Degeneration/necrosis, Slight / Myocardium: Hemorrhage, Slight / Myocardium: Infiltrate, mixed cell, Slight: animals affected (n=5).
Procedure: Animal body weight was determined at days 1, 3, and 7 of the dosing phase. Animals were sacrificed at day 8 and necropsies performed.

For data set [5], the system named is rats and dogs. The conditions noted are these: Stauber et al. 2014; cited from earlier work.

As for `O=C(NC1CCOCC1)c1ccc(-c2cc(-c3c[nH]nc3-c3ccccn3)ccn2)cc1` [GW788388], in data set [1], the “Bone toxicity in rats” value is “induced physeal dysplasia”.

As for “Fresolimumab: a pan TGFβ antibody capable of neutralizing all human isoforms of TGFβ”, the “Toxicity after multiple administrations” value in data set [2] was “induce an epithelial hyperplasia of the gingiva, bladder, and of the nasal turbinate epithelium”. The “Most notable adverse reaction in clinical trials” value in data set [3] is listed as “induction of cutaneous keratoacanthomas and/or squamous cell carcinomas”.

`c1ccc(-c2nn3c(c2-c2ccnc4cc(OCCN5CCOCC5)ccc24)CCC3)nc1` [LY2109761]: the “Body weight during the dosing phase” value in data set [4] (200 mg/kg or 300 mg/kg) is recorded as “decreased body weight”. In data set [4] (200 mg/kg oral gavage once daily, n=5, day 7), the Animals found dead result is “Two”. Also, the Mortality result in data set [4] (300 mg/kg oral gavage once daily, all animals (n=5), days 3, 6, or 7) is “sacrificed in a moribund condition or found dead”. Moreover, in data set [4] (LY2109761 200 mg/kg/day), the “Heart, Absolute Weight” value is listed as 112 percentage control mean value; the “Heart, Body Weight Ratio” value is 132 percentage control mean value; the “Heart, Brain Weight Ratio” value was 113 percentage control mean value; the “Aortic root: Hemorrhage, Minimal” value worked out at 1. Also, in data set [4] (LY2109761 200 mg/kg/day), the “Aortic root: Infiltrate, mixed cell, Minimal” value stood at 1; the “Atrium: Hemorrhage, Minimal” value stood at 1; the “Atrium: Hyperplasia, endothelium, Minimal” value turned out to be 1; the “Atrium: Infiltrate, mixed cell, Minimal” value amounted to 2. For the same molecule, in data set [4] (LY2109761 200 mg/kg/day), the “Atrium: Infiltrate, mixed cell, Slight” value amounted to 0; the “Coronary artery: Necrosis with inflammation, Slight” value came out at 0; the “Heart valves: Valvulopathy, Minimal” value worked out at 1; the “Heart valves: Valvulopathy, Moderate” value is reported as 1. Also, in data set [4] (LY2109761 200 mg/kg/day), the “Heart valves: Valvulopathy, Slight” value is given as 3; the “Myocardium: Degeneration/necrosis, Minimal” value is 0; the “Myocardium: Degeneration/necrosis, Slight” value was 1; the “Myocardium: Hemorrhage, Slight” value stood at 1. In addition, the “Myocardium: Infiltrate, mixed cell, Slight” value in data set [4] (LY2109761 200 mg/kg/day) amounted to 0. For the same molecule, in data set [4] (LY2109761 300 mg/kg/day), the “Aortic root: Hemorrhage, Minimal” value came to 0; the “Aortic root: Infiltrate, mixed cell, Minimal” value came to 0; the “Atrium: Hemorrhage, Minimal” value is given as 2; the “Atrium: Hyperplasia, endothelium, Minimal” value is on record as 3. For the same molecule, in data set [4] (LY2109761 300 mg/kg/day), the “Atrium: Infiltrate, mixed cell, Minimal” value is 3; the “Atrium: Infiltrate, mixed cell, Slight” value is 1; the “Coronary artery: Necrosis with inflammation, Slight” value stood at 1; the “Heart valves: Valvulopathy, Minimal” value was 2. Further, in data set [4] (LY2109761 300 mg/kg/day), the “Heart valves: Valvulopathy, Moderate” value is 0; the “Heart valves: Valvulopathy, Slight” value is 3; the “Myocardium: Degeneration/necrosis, Minimal” value is recorded as 1; the “Myocardium: Degeneration/necrosis, Slight” value amounted to 1. Besides, in data set [4] (LY2109761 300 mg/kg/day), the “Myocardium: Hemorrhage, Slight” value turned out to be 0 and the “Myocardium: Infiltrate, mixed cell, Slight” value is reported as 1. In addition, in data set [4] (each of 200 mg/kg and 300 mg/kg groups, n=5), the “Animals with abnormally-shaped sternum” value is recorded as “four”. Besides, the “Clear fluid in the thoracic cavity” value in data set [4] (one animal at 300 mg/kg found dead on Day 3, with enlarged thymus (edema)) is on record as 2.5 mL. In addition, in data set [4] (≥200 mg/kg), the Heart weight result was “Increased heart weights” and the “Microscopic heart valve findings” value is given as “exhibited heart valve findings (i.e., valvulopathy)”.

Regarding `Cc1cccc(-c2nn3c(c2-c2ccnc4ccc(C(N)=O)cc24)CCC3)n1` [LY2157299], the “Organ toxicities on chronic (≥3 months) administration” value in data set [5] is recorded as “caused multiple organ toxicities”.
